Measurements taken from PubChem BioAssay (NCI).
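Cultured in 96-well plates, cells were exposed to test compound for 48 hours across five concentrations. At the TGI there is no net growth.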

Tests used:
Assay in all cases: NCI anticancer screen, dose series, 48 h
A498 renal = test system: A498 renal
HCC-2998 colon = test system: HCC-2998 colon
HCT-116 colon = test system: HCT-116 colon
HCT-15 colon = test system: HCT-15 colon
HT29 colon = test system: HT29 colon
MCF7 breast = test system: MCF7 breast
OVCAR-8 ovarian = test system: OVCAR-8 ovarian
SF-539 CNS = test system: SF-539 CNS
SK-MEL-28 melanoma = test system: SK-MEL-28 melanoma
SN12C renal = test system: SN12C renal
SNB-19 CNS = test system: SNB-19 CNS
SNB-75 CNS = test system: SNB-75 CNS
TK-10 renal = test system: TK-10 renal
U251 CNS = test system: U251 CNS
UO-31 renal = test system: UO-31 renal
CAKI-1 renal = test system: CAKI-1 renal
K-562 leukemia = test system: K-562 leukemia
SR leukemia = test system: SR leukemia
HOP-92 NSCLC = test system: HOP-92 NSCLC

Row | Compound | TGI (A498 renal) [µM] | TGI (HCC-2998 colon) [µM] | TGI (HCT-116 colon) [µM] | TGI (HCT-15 colon) [µM] | TGI (HT29 colon) [µM] | TGI (MCF7 breast) [µM] | TGI (OVCAR-8 ovarian) [µM] | TGI (SF-539 CNS) [µM] | TGI (SK-MEL-28 melanoma) [µM] | TGI (SN12C renal) [µM] | TGI (SNB-19 CNS) [µM] | TGI (SNB-75 CNS) [µM] | TGI (TK-10 renal) [µM] | TGI (U251 CNS) [µM] | TGI (UO-31 renal) [µM] | TGI (CAKI-1 renal) [µM] | TGI (K-562 leukemia) [µM] | TGI (SR leukemia) [µM] | TGI (HOP-92 NSCLC) [µM]
1 | O=C(Cc1ccccc1)NN1C(=O)/C(=C\c2cccc(O)c2)SC1=Nc1ccccc1 | > 100 | > 100 | > 100 | > 100 | > 100 | > 100 | > 100 | > 100 | > 100 | > 100 | > 100 | > 100 | > 100 | > 100 | > 100 | – | – | – | –
2 | C1CCC2C(C1)CCCC2NC1=NCCO1 (stereo not given) | > 100 | > 100 | > 100 | > 100 | > 100 | > 100 | > 100 | > 100 | > 100 | > 100 | > 100 | > 100 | > 100 | > 100 | > 100 | > 100 | > 100 | > 100 | –
3 | CN1NC(=Nc2ccccc2)Sc2c1cnn(-c1ccccc1)c2=O | > 100 | > 100 | > 100 | > 100 | > 100 | – | > 100 | > 100 | – | > 100 | > 100 | – | > 100 | > 100 | > 100 | – | > 100 | – | > 100
4 | COC(=O)[C@@H]1CCCN1CCN1CCC[C@H]1C(=O)OC | > 100 | – | > 100 | > 100 | > 100 | > 100 | > 100 | > 100 | > 100 | > 100 | > 100 | – | > 100 | > 100 | > 100 | > 100 | > 100 | 86.6 | > 100
5 | Oc1cc(C2OCCCO2)cc(O)c1O | > 100 | > 100 | > 100 | > 100 | > 100 | – | > 100 | > 100 | > 100 | > 100 | > 100 | > 100 | > 100 | > 100 | > 100 | > 100 | > 100 | > 100 | –
6 | COC(=O)C1=C2SCc3cccc(c3)CSC3=C(C(=O)OC)SC(=C(S2)S1)S3 | > 100 | > 100 | > 100 | – | – | > 100 | – | – | > 100 | > 100 | > 100 | > 100 | > 100 | > 100 | > 100 | > 100 | > 100 | – | –
7 | NC1=NS(=O)(=O)Nc2nc(-c3ccc([N+](=O)[O-])o3)[nH]c21 | > 100 | 32.2 | 17.7 | 44.1 | 42.4 | – | 89.3 | 31.6 | 30.1 | 36.4 | 35.9 | 30.3 | 33 | 31.7 | 36.5 | 35.7 | 22.9 | – | 27.1
8 | COc1cc2cccc(N=Cc3cccc(OC)c3OC(C)C)c2cc1OC | > 100 | > 100 | – | – | 50.2 | – | 53.1 | – | 66.9 | > 100 | – | 49 | 59 | 49.9 | > 100 | 42.9 | 89 | – | –
9 | CC1=COC(C)(C=C(C#N)C#N)CC1 (stereo not given) | > 100 | > 100 | > 100 | – | > 100 | > 100 | > 100 | 51.1 | > 100 | > 100 | > 100 | > 100 | > 100 | > 100 | > 100 | – | > 100 | > 100 | –
10 | O=C1c2ccc3c4ccccc4n(Cc4ccccc4)c3c2C(=O)N1c1ccccc1 | 45.9 | 37.2 | 30 | 22.7 | 39.2 | – | 31.9 | 31.1 | 31.3 | 30.1 | 42.3 | 27.7 | 29 | 29.3 | 30.1 | 25.1 | 34.2 | 22.1 | 26.9
11 | COc1ccc(O)cc1 | > 100 | > 100 | > 100 | 98.4 | > 100 | – | > 100 | > 100 | > 100 | > 100 | > 100 | > 100 | > 100 | > 100 | > 100 | > 100 | > 100 | > 100 | > 100
